# Experimental data as given in EP4603105A1, “PHARMACEUTICAL COMPOSITION CONTAINING CYCLIC COMPOUND HAVING SELECTIVE KRAS INHIBITORY EFFECT AGAINST HRAS AND NRAS” (CHUGAI SEIYAKU KABUSHIKI KAISHA, priority 2022, dated 2024).
# Read-outs that look alike come from different tables or passages of the source.
# Key:
# [1] = test system: human lung cancer strain NCI-H441; assay: NCI-H441 cell proliferation inhibitory activity (CellTiter-Glo, 4 days); assay type: cell-based; conditions: read-out: NCl-H441 IC50
# In short: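 Signal came from […] measured per well once the reagent was added. Beforehand, cells were cultured at 37°C and 5% carbon dioxide on a compound series serially diluted in dimethyl sulfoxide.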
# [2] = target: GDP-bound NRAS wild-type protein (Homo sapiens, UniProt P01111); assay: Binding to NRAS by surface plasmon resonance (SPR), KD and KD ratio to KRAS
# In short: (§1)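 Measured at 30°C: SPR with GDP-loaded, E. coli-expressed biotin-Avi RAS captured (~100–300 RU), ascending 75 s compound injections, HBS pH 7.4 with GDP, MgCl2, 4% DMSO. KD from 1:1 fit.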
# [3] = target: GDP-bound KRAS wild-type protein (Homo sapiens, UniProt P01116); assay: Binding to KRAS by surface plasmon resonance (SPR), dissociation constant KD
# In short: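 GDP-loaded biotinylated Avi-tag RAS proteins (E. coli-expressed) captured on a Biotin CAPture chip at ~100–300 RU; single-cycle kinetics at 30°C, 100 µL/min, 75 s injections of rising compound concentrations. HBS pH 7.4 running buffer with 1 mM DTT, 10 mM MgCl2, 10 µM GDP, 4% DMSO. KD from 1:1 binding fit.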
# HRAS wild-type protein = HRAS wild-type protein (Homo sapiens, UniProt P01112); assay: Binding to HRAS by surface plasmon resonance (SPR), KD and KD ratio to KRAS
# In short: as §1
# [4] = ratio of KD for GDP-bound NRAS wild-type protein to KD for KRAS
# [5] = ratio of KD for HRAS wild-type protein to KD for KRAS
# [6] = 50% proliferation inhibitory concentration, four days
# [7] = ratio of KD with respect to GDP-bound NRAS wild-type protein to KD with respect to KRAS
# [8] = Single Cycle Kinetics, 1:1 binding model
# [9] = ratio of KD with respect to HRAS wild-type protein to KD with respect to KRAS
# Sequence of HRAS wild-type protein (P01112 whole entry): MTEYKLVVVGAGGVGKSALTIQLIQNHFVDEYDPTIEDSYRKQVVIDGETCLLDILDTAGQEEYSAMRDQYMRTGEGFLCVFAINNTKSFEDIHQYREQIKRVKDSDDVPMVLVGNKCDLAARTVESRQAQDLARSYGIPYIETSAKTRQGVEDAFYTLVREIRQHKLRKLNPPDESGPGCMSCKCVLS
# Sequence of GDP-bound NRAS wild-type protein (P01111 whole entry): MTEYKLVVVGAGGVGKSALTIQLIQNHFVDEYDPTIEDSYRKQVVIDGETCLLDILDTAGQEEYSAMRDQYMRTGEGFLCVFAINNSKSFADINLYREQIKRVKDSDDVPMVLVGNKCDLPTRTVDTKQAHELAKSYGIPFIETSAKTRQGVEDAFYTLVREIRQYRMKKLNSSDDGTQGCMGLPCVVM
# Sequence of GDP-bound KRAS wild-type protein (P01116 1-188 isoform P01116-2): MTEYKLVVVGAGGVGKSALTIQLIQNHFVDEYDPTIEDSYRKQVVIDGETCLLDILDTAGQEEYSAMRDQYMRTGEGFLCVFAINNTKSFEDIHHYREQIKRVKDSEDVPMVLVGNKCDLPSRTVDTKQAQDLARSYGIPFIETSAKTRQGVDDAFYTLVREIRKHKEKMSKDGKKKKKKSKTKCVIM
Structure (SMILES),"IC50 ([1]; NCI-H441 cells, 4 days) [nM]",Kd ([3]; Single Cycle Kinetics) [nM],Kd ([3]; 1:1 binding model) [nM],"IC50 [1, 6] [nM]","Kd [3, 8] [nM]","NRAS /KRAS [2, 4]",HRAS /KRAS (HRAS wild-type protein; [5]),"NRAS /KRAS [2, 7]",HRAS /KRAS (HRAS wild-type protein; [9])
C=C(C)C[C@H]1C(=O)N(C)[C@H](C(=O)N(C)C)CC(=O)N(C)[C@@H](CCC)C(=O)N[C@@H]([C@@H](C)CC)C(=O)N2CCC[C@H]2C(=O)N(C)[C@H]2C/C=C\CCN(C2=O)[C@@H](Cc2ccc(C(F)(F)F)cc2)C(=O)N(C)CC(=O)N[C@@H](CCc2ccc(C(F)(F)F)c(OC)c2)C(=O)N2C[C@H](OCC)C[C@H]2C(=O)N(C)C2(CCC2)C(=O)N1C [PP3335],90.6,2.5,–,–,–,A (a compound having 10 or more and less than 20 is denoted as A),A (a compound having 10 or more and less than 20 is denoted as A),–,–
C=CC[C@H]1C(=O)N(C)[C@H](C(=O)N(C)C)CC(=O)N(C)[C@@H](CCC)C(=O)N[C@@H]([C@@H](C)CC)C(=O)N(C)CC(=O)N(C)[C@H]2C/C=C\CCN(C2=O)[C@@H](Cc2ccc(C(F)(F)F)cc2)C(=O)N(C)CC(=O)N[C@@H](CCc2ccc(C(F)(F)F)c(OC)c2)C(=O)N2C[C@H](OCC)C[C@H]2C(=O)N(C)C2(CCC2)C(=O)N1C [PP3330],80.4,1.1,–,–,–,A (a compound having 10 or more and less than 20 is denoted as A),A (a compound having 10 or more and less than 20 is denoted as A),–,–
CCO[C@@H]1C[C@H]2C(=O)NC3(CCC3)C(=O)N(C)[C@@H](C3CCCC3)C(=O)N(C)[C@H](C(=O)N3CCOCC3)CC(=O)N(C)[C@@H](Cc3ccc(C#N)cc3)C(=O)N[C@@H]([C@@H](C)CC)C(=O)N(C)CC(=O)N(C)[C@H]3CCCCCN(C3=O)[C@@H](Cc3ccc(F)cc3)C(=O)N(C)CC(=O)N[C@@H](CCc3cc(F)c(C(F)(F)F)c(F)c3)C(=O)N2C1 [PP1187],–,–,–,52.3,0.12,–,–,B (a compound having 3 or more and less than 10 is denoted as B),B (a compound having 3 or more and less than 10 is denoted as B)
CCC(CC)[C@H]1C(=O)N(C)[C@H](C(=O)N(C)C)CC(=O)N(C)[C@@H](COC)C(=O)N[C@@H]([C@@H](C)CC)C(=O)N2CCC[C@H]2C(=O)N(C)[C@H]2C/C=C\CCN(C2=O)[C@@H](Cc2ccc(C(F)(F)F)cc2)C(=O)N(C)CC(=O)N[C@@H](CCc2ccc(Cl)c(Cl)c2)C(=O)N2C[C@H](OC(C)C)C[C@H]2C(=O)NC2(CC(C)(C)C2)C(=O)N1C [PP2639],81.6,–,1.1,–,–,AA (a compound having 20 or more is denoted as AA),A (a compound having 10 or more and less than 20 is denoted as A),–,–
CCO[C@@H]1C[C@H]2C(=O)NC3(CCC3)C(=O)N(C)[C@@H](C3CCCC3)C(=O)N(C)[C@H](C(=O)N(C)C)CC(=O)N(C)[C@@H](CC3CCCC3)C(=O)N[C@@H]([C@@H](C)CC)C(=O)N(C)CC(=O)N(C)[C@H]3C/C=C\CCN(C3=O)[C@@H](CC3CCC(F)(F)CC3)C(=O)N(C)CC(=O)N[C@@H](CCc3cc(F)c(C(F)(F)F)c(F)c3)C(=O)N2C1 [PP1458],–,–,–,18.2,0.15,–,–,A (a compound having 10 or more and less than 20 is denoted as A),A (a compound having 10 or more and less than 20 is denoted as A)

# More lines, in order of falling IC50 ([1]; NCI-H441 cells, 4 days), values ahead:
"IC50 ([1]; NCI-H441 cells, 4 days) [nM]",Kd ([3]; Single Cycle Kinetics) [nM],Kd ([3]; 1:1 binding model) [nM],"IC50 [1, 6] [nM]","Kd [3, 8] [nM]",Structure (SMILES),"NRAS /KRAS [2, 4]",HRAS /KRAS (HRAS wild-type protein; [5]),"NRAS /KRAS [2, 7]",HRAS /KRAS (HRAS wild-type protein; [9])
70.3,–,1.2,–,–,CCCOC[C@H]1C(=O)N[C@@H]([C@@H](C)CC)C(=O)N(C)CC(=O)N(C)[C@H]2C/C=C\CCN(C2=O)[C@@H](Cc2ccc(C)cc2)C(=O)N(C)CC(=O)N[C@@H](CCc2cc(F)c(C(F)(F)F)c(F)c2)C(=O)N2C[C@H](OCC)C[C@H]2C(=O)NC2(CC(C)(C)C2)C(=O)N(C)[C@@H](CC2CCC2)C(=O)N(C)[C@H](C(=O)N(C)C)CC(=O)N1C [PP2752],A (a compound having 10 or more and less than 20 is denoted as A),A (a compound having 10 or more and less than 20 is denoted as A),–,–
51.5,0.82,–,–,–,CCO[C@@H]1C[C@H]2C(=O)NC3(CC(C)(C)C3)C(=O)N(C)[C@@H](C3CCCC3)C(=O)N(C)[C@H](C(=O)N(C)CC)CC(=O)N(C)[C@@H]([C@H](C)OC)C(=O)N[C@@H]([C@@H](C)CC)C(=O)N(C3CC3)CC(=O)N(C)[C@H]3C/C=C\CCN(C3=O)[C@@H](Cc3ccc(C(F)(F)F)cc3)C(=O)N(C)CC(=O)N[C@@H](CCc3ccc(C(F)(F)F)c(Cl)c3)C(=O)N2C1 [PP3221],A (a compound having 10 or more and less than 20 is denoted as A),A (a compound having 10 or more and less than 20 is denoted as A),–,–
26,–,0.52,–,–,CCC[C@H]1C(=O)N[C@@H]([C@@H](C)CC)C(=O)N(C)CC(=O)N(C)[C@H]2C/C=C\CCN(C2=O)[C@@H](Cc2ccc(C(F)(F)F)cc2)C(=O)N(C)CC(=O)N[C@@H](CCc2ccc(Cl)c(Cl)c2)C(=O)N2C[C@H](OCC)C[C@H]2C(=O)NC2(CC(C)(C)C2)C(=O)N(C)[C@@H](CC2CCC2)C(=O)N(C)[C@H](C(=O)N(C)C)CC(=O)N1C [PP2766],A (a compound having 10 or more and less than 20 is denoted as A),A (a compound having 10 or more and less than 20 is denoted as A),–,–
25.7,0.52,–,–,–,CCO[C@@H]1C[C@H]2C(=O)NC3(CC(C)(C)C3)C(=O)N(C)[C@@H](C3CCCC3)C(=O)N(C)[C@H](C(=O)N(C)CC)CC(=O)N(C)[C@@H]([C@H](C)OC)C(=O)N[C@@H]([C@@H](C)CC)C(=O)N(C3CC3)CC(=O)N(C)[C@H]3C/C=C\CCN(C3=O)[C@@H](Cc3ccc(C(F)(F)F)cc3)C(=O)N(C)CC(=O)N[C@@H](CCc3cc(F)c(C(F)(F)F)c(F)c3)C(=O)N2C1 [PP3220],A (a compound having 10 or more and less than 20 is denoted as A),A (a compound having 10 or more and less than 20 is denoted as A),–,–
21,–,0.15,–,–,CCO[C@H](C)[C@@H]1NC(=O)[C@H](CC(C)C)N(C)C(=O)C[C@@H](C(=O)N(C)C)N(C)C(=O)[C@H](C2CCCC2)N(C)C(=O)C2(CC(C)(C)C2)NC(=O)[C@@H]2C[C@H](C)CN2C(=O)[C@H](CCc2ccc(C(F)(F)F)c(OC)c2)NC(=O)CN(C)C(=O)[C@H](Cc2ccc(C)cc2)N2CC/C=C\C[C@@H](C2=O)N(C)C(=O)CN(C)C1=O [PP2412],A (a compound having 10 or more and less than 20 is denoted as A),B (a compound having 3 or more and less than 10 is denoted as B),–,–
10.6,0.66,–,–,–,CCC[C@H]1C(=O)N[C@@H]([C@@H](C)CC)C(=O)N2CCC[C@H]2C(=O)N(C)[C@H]2C/C=C\CCN(C2=O)[C@@H](Cc2ccc(C)cc2)C(=O)N(C)CC(=O)N[C@@H](CCc2ccc(C(F)(F)F)c(OC)c2)C(=O)N2C[C@H](OCC)C[C@H]2C(=O)OC2(CCC2)C(=O)N(C)[C@@H](C2CCCC2)C(=O)N(C)[C@H](C(=O)N(C)C)CC(=O)N1C [PP3386],A (a compound having 10 or more and less than 20 is denoted as A),B (a compound having 3 or more and less than 10 is denoted as B),–,–
8.3,–,0.12,–,–,CCOC[C@H]1C(=O)N[C@@H]([C@@H](C)CC)C(=O)N(C)CC(=O)N(C)[C@H]2C/C=C\CCN(C2=O)[C@@H](Cc2ccc(C)cc2)C(=O)N(C)CC(=O)N[C@@H](CCc2ccc(C(F)(F)F)c(Cl)c2)C(=O)N2C[C@@H](C)C[C@H]2C(=O)NC2(CC(C)(C)C2)C(=O)N(C)[C@@H](C2CCCC2)C(=O)N(C)[C@H](C(=O)N(C)C)CC(=O)N1C [PP2394],A (a compound having 10 or more and less than 20 is denoted as A),B (a compound having 3 or more and less than 10 is denoted as B),–,–
